From ChEMBL document CHEMBL1201862, “PubChem BioAssay data set” (2004) come the findings set out here.

What is called IC50 is the concentration needed to halve the response being measured. What is called EC50 is the concentration needed to bring the measured effect to its halfway point.

Calls of active or inactive are those of the source.

In assay [1] the target is T1, E3 ubiquitin-protein ligase XIAP (Homo sapiens, UniProt P98170). As to the kind of experiment: Counter Screen using XIAP-Bir3 for Chemical Antagonists of Bir1/2 domains of IAP-family anti-apoptotic proteins. [Related pubchem assays (depositor defined):AID1018, AID1449, AID1514, AID1638, AID1749, AID1750, AID488957, AID488963]. Background: Counterscreens check selectivity or assay interference.

The target in assay [2] is T1, E3 ubiquitin-protein ligase XIAP. Put plainly: small molecules displacing peptide from XIAP – biochemical, IAP family, fluorescence polarization (AID 1018). The assay is classed as functional.
Assay [3] has as its target T2, Delta-type opioid receptor (Homo sapiens, UniProt P41143). Put plainly: HTS Image-Based Screen for Agonists of the DOR Receptor. [Related pubchem assays (depositor defined):AID1777, AID1786, AID2133]. Type of assay: functional.
For assay [4], the target named is T3, Kappa-type opioid receptor (Homo sapiens, UniProt P41145). Type of assay: functional.
Assay [5] concerns the target T3, Kappa-type opioid receptor. Type of assay: functional. This is another data set of the same source.
The target of assay [6] is T2, Delta-type opioid receptor. Put plainly: HTS Image-Based Screen for Antagonists of the DOR Receptor. [Related pubchem assays (depositor defined):AID1777, AID1785, AID1786, AID2133]. Type of assay: functional.
The target of assay [7] is Mu-type opioid receptor (Homo sapiens, UniProt P35372). As to the kind of experiment: HTS Image-Based Screen for Agonists of the MOR Receptor. [Related pubchem assays (depositor defined):AID1777, AID1785, AID1786, AID2133]. Type of assay: functional.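 Note: imaging of beta-arrestin GFP recruitment into spots after receptor activation.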
Assay [8] deals with T4, Cannabinoid receptor 1 (Homo sapiens, UniProt P21554). Put plainly: SAR analysis of agonists of the Cannabinoid Receptor 1 using an Image-Based Assay - Set 4. [Related pubchem assays (depositor defined):AID2013, AID2026]. Type of assay: functional.
The target in assay [9] is T5, Cannabinoid receptor 2 (Homo sapiens, UniProt P34972). Put plainly: SAR analysis of antagonists of the Cannabinoid Receptor 2 using an Image-Based Assay - Set 3. [Related pubchem assays (depositor defined):AID2013, AID2026]. The assay is classed as functional.
The target in assay [10] is G-protein coupled receptor 55 (Homo sapiens, UniProt Q9Y2T6). As to the kind of experiment: SAR Analysis of Selective Antagonists of GPR55 using an Image-Based Assay - Set 4. [Related pubchem assays (depositor defined):AID2013, AID2026]. The assay is classed as functional.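 Note: antagonism of response to 5 µM lysophosphatidylinositol agonist.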
The target of assay [11] is T5, Cannabinoid receptor 2. As to the kind of experiment: SAR analysis of agonists of the Cannabinoid Receptor 2 using an Image-Based Assay - Set 3. [Related pubchem assays (depositor defined):AID2013, AID2026]. Type of assay: functional.
The target of assay [12] is T6, G-protein coupled receptor 35 (Homo sapiens, UniProt Q9HC97). As to the kind of experiment: SAR analysis of Agonists of the GPR35 Receptor using an Image-Based Assay - Set 4. [Related pubchem assays (depositor defined):AID2013, AID2026]. The assay is classed as functional.
Assay [13] concerns the target T4, Cannabinoid receptor 1. As to the kind of experiment: SAR analysis of antagonists of the Cannabinoid Receptor 1 using an Image-Based Assay - Set 4. [Related pubchem assays (depositor defined):AID2013, AID2026]. Type of assay: functional.
For assay [14], the target named is T6, G-protein coupled receptor 35. Put plainly: SAR analysis of Antagonists of the GPR35 Receptor using an Image-Based Assay - Set 6. [Related pubchem assays (depositor defined):AID2013, AID2026]. Type of assay: functional.
Assay [15] deals with T7, Alkaline phosphatase, tissue-nonspecific isozyme (Homo sapiens, UniProt P05186).
T7 sequence (P05186 whole entry): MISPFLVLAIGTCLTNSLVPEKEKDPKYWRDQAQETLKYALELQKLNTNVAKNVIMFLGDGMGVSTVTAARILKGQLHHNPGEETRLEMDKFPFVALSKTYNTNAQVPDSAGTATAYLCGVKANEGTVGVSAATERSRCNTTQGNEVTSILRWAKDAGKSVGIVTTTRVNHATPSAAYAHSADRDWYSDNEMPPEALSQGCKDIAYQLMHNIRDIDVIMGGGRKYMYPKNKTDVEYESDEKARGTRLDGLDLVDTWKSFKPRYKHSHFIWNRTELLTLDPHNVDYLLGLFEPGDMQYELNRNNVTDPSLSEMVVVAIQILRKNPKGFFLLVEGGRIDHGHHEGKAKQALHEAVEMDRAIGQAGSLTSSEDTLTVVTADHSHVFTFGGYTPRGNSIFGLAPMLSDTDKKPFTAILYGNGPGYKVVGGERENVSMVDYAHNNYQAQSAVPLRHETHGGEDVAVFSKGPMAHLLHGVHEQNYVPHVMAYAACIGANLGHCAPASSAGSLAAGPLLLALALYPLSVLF
Put plainly: activation of tissue-nonspecific alkaline phosphatase – biochemical, TNAP isozyme, mouse IAP uHTS hits, selectivity assay for mouse IAP activator project, dose response (AID 488880). Type of assay: functional.

Assay [16] deals with Intestinal-type alkaline phosphatase (Mus musculus, UniProt P24822). As to the kind of experiment: mouse intestinal alkaline phosphatase activators, dose response, biochemical, luminescence, uHTS hits (AID 488783). The assay is classed as functional.
Assay [17] addresses Intestinal-type alkaline phosphatase (Homo sapiens, UniProt P09923). Put plainly: activation of human intestinal alkaline phosphatase – biochemical, dose response (AID 488873). The assay is classed as functional.
In assay [18] the target is T8, Rac GTPase-activating protein 1 (Homo sapiens, UniProt Q9H0H5).
T8 sequence (Q9H0H5 whole entry): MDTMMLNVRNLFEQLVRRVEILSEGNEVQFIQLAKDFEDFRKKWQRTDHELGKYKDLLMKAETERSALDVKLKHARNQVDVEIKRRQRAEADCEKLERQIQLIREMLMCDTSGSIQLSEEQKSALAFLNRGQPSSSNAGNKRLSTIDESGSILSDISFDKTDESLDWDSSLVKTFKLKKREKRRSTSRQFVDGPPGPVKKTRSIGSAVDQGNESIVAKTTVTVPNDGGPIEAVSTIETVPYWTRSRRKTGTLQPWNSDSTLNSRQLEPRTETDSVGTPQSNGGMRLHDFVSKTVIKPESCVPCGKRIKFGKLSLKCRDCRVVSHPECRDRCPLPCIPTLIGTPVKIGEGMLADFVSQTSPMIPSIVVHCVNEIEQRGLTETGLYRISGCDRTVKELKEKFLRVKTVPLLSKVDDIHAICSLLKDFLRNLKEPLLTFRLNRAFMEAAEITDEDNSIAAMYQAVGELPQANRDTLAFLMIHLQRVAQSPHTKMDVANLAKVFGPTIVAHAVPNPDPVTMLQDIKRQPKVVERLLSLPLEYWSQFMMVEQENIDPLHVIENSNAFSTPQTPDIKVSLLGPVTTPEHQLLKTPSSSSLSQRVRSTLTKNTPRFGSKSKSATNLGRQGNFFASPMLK
As to the kind of experiment: blockers of MgcRacGAP-driven Rac1 GTP hydrolysis – biochemical, ADP Hunter fluorescence, primary and confirmatory, confirmation (AID 624330). The assay is classed as functional.

Assay [19] has as its target Prothrombin (Bos taurus, UniProt P00735). As to the kind of experiment: thrombin protease inhibitors – biochemical, fluorescence polarization, uHTS hits, dose response (AID 602369). Type of assay: functional. In general terms: Fluorescence polarisation rises when a labelled molecule tumbles more slowly, as on binding a larger partner.
Assay [20] deals with 26S proteasome non-ATPase regulatory subunit 14 (Homo sapiens, UniProt O00487). Put plainly: inhibition of proteasome subunit RPN11 – biochemical, fluorescence polarization, uHTS hits, confirmation (AID 602368). The assay is classed as functional.
For assay [21], the target named is 72 kDa type IV collagenase (Homo sapiens, UniProt P08253). Put plainly: Dose Response validation of uHTS RPN11 inhibitor hits using a MMP-2 Fluorescence assay. The assay is classed as functional.
Assay [22] is described as follows: mitochondrial function rescue without frataxin homolog – Friedreich's ataxia, plus single-dose screen, dose response (AID 1465).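 Note: yeast depleted of Yfh1p frataxin homolog grown on glycerol needing respiration; WST-1 tetrazolium dye reduction as measure of cellular dehydrogenase metabolic activity.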 The assay is classed as functional.

T3 sequence (P41145 whole entry): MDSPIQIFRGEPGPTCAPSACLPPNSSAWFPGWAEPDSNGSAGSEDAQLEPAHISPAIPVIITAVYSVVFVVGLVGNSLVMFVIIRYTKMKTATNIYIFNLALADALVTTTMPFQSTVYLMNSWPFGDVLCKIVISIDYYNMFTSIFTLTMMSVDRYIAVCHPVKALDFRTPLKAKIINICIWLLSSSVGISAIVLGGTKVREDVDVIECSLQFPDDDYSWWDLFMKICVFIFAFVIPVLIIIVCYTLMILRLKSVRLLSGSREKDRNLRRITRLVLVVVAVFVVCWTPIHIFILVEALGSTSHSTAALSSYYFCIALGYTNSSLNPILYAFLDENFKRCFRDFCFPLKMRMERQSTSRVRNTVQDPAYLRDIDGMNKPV
T2 sequence (P41143 whole entry): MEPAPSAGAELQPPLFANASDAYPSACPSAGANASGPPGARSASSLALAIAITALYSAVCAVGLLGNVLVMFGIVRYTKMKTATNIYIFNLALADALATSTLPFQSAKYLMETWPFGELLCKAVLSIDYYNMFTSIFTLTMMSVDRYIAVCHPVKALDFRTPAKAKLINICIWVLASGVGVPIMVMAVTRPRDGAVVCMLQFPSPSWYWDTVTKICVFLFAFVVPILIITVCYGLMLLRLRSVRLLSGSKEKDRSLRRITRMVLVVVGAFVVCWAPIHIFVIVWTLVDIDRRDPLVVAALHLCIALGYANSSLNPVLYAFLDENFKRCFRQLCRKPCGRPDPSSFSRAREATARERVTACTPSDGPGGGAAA
T4 sequence (P21554 whole entry): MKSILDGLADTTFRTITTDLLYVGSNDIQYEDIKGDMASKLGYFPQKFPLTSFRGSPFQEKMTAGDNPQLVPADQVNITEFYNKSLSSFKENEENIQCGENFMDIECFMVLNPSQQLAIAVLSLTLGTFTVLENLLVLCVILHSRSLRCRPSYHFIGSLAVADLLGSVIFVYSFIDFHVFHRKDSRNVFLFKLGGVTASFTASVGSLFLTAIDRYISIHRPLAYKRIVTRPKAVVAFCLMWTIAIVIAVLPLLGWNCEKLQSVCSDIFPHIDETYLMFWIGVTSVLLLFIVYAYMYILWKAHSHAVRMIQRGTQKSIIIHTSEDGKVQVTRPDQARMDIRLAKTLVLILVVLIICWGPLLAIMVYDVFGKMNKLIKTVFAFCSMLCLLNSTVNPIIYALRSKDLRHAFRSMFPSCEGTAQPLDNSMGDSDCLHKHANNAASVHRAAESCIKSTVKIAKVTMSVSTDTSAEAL
T1 sequence (P98170 whole entry): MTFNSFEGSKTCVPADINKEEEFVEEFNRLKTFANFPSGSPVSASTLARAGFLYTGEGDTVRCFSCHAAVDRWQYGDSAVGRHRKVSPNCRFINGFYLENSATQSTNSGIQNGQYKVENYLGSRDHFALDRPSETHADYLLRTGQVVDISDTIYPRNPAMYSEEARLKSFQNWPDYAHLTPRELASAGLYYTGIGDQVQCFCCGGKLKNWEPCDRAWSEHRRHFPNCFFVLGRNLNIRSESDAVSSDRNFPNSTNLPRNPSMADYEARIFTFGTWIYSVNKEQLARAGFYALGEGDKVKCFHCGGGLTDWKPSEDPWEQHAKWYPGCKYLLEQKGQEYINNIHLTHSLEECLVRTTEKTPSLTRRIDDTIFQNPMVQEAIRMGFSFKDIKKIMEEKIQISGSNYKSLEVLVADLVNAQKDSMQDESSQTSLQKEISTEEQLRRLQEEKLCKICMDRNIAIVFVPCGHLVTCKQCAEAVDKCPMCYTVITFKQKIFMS
T6 sequence (Q9HC97 whole entry): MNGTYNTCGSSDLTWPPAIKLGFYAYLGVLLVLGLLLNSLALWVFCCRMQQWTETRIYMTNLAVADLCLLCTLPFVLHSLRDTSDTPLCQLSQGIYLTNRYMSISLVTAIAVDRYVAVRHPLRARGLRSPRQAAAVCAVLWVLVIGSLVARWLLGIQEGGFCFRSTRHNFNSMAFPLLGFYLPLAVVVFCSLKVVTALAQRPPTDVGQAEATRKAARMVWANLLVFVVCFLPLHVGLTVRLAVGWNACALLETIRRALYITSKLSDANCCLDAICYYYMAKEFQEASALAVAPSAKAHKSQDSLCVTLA
T5 sequence (P34972 whole entry): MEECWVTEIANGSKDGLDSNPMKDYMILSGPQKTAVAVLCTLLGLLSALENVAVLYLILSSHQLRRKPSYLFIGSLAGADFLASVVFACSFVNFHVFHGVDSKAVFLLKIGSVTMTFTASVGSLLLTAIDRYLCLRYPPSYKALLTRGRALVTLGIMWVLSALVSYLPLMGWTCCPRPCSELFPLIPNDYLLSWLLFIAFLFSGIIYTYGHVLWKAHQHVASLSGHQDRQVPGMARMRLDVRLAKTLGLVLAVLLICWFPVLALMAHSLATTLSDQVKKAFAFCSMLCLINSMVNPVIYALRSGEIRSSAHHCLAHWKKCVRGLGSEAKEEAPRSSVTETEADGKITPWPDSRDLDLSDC
Chain of Mu-type opioid receptor (P35372 whole entry): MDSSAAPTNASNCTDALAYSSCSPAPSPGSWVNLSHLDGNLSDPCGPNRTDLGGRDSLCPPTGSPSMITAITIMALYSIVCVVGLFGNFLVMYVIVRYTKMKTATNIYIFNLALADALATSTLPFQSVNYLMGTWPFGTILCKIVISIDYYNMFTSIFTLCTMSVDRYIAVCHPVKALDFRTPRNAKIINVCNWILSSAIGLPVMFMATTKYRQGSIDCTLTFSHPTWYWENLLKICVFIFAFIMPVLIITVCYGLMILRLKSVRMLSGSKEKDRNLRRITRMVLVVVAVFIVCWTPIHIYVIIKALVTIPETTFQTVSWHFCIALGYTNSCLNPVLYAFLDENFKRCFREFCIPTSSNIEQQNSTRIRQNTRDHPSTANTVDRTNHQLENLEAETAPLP
Chain of 72 kDa type IV collagenase (P08253 whole entry): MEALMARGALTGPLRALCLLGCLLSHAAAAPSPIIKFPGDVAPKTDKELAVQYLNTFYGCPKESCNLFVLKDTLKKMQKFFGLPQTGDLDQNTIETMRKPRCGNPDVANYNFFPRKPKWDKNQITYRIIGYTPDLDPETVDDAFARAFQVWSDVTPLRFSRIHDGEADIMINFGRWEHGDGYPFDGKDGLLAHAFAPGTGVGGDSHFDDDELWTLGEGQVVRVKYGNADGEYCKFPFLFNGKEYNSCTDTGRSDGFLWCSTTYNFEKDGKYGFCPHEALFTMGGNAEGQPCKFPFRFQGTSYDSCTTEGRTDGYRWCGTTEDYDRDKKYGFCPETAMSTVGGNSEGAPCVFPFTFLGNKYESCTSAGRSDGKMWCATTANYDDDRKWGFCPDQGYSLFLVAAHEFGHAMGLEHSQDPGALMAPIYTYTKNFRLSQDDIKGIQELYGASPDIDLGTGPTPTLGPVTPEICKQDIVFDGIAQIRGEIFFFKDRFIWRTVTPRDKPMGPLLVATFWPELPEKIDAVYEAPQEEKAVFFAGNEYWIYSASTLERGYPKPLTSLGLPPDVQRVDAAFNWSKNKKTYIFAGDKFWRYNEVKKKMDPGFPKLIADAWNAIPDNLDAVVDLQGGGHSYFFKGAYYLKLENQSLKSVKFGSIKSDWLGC
Chain of Intestinal-type alkaline phosphatase (Mus musculus, UniProt P24822) (P24822 whole entry): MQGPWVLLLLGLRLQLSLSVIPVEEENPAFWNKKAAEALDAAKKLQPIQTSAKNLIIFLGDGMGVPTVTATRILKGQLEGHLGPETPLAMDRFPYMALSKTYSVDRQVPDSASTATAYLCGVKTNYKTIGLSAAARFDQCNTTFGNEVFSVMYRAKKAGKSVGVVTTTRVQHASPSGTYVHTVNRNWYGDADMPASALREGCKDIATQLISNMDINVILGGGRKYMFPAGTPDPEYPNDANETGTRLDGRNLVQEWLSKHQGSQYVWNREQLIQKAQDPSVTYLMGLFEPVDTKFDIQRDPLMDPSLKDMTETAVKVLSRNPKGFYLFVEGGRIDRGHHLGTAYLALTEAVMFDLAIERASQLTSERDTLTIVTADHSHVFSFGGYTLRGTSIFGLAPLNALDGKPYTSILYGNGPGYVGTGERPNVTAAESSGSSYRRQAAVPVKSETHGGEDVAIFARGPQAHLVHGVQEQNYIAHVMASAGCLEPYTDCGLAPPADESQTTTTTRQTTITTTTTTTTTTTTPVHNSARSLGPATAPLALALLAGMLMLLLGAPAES
Chain of Intestinal-type alkaline phosphatase (Homo sapiens, UniProt P09923) (P09923 whole entry): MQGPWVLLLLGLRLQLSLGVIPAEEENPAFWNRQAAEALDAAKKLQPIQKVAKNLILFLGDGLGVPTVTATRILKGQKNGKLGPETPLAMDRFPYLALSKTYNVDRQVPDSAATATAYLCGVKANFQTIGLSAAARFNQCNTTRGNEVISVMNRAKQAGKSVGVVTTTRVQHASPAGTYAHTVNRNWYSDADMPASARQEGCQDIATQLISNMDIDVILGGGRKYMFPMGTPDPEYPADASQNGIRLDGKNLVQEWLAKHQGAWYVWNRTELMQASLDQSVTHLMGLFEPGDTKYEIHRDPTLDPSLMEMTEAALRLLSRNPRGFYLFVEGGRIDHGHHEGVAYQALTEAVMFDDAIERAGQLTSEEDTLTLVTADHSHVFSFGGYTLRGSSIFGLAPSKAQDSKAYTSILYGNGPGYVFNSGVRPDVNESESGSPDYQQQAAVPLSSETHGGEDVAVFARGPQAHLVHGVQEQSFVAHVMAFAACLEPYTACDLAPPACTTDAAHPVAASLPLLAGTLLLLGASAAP
Chain of 26S proteasome non-ATPase regulatory subunit 14 (O00487 whole entry): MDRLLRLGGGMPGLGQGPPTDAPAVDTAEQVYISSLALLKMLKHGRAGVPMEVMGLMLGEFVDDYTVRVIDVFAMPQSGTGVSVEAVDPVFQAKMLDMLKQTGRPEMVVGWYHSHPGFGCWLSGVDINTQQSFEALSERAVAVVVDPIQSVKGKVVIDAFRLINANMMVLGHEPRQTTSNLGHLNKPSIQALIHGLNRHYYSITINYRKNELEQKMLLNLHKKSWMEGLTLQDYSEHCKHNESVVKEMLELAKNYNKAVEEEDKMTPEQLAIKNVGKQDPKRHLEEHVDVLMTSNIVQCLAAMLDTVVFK

Consider `CN1/C(=C\C=C2\N=C(c3ccc(F)cc3)OC2=O)C(C)(C)c2ccccc21`, for which the figures for the IC50 in assay [1] and in assay [2] were > 12.5 µM (inactive) and > 100 µM (not active), respectively.
`CC(Sc1nnc(CN2CCCC2)n1Cc1ccccc1)C(=O)Nc1ccc(F)cc1` (configuration not stated): the EC50 was > 32 µM (inactive) in [3], 3.82 µM in [4], 3.33 µM in assay [5] and > 32 µM (inactive) in assay [7]. Also, the IC50 in assay [6] is > 32 µM (inactive).
In the case of `O=C(Cc1ccc(F)cc1)N1CCC(n2nc(-c3ccccc3)oc2=O)CC1`, the EC50 in assay [8], in assay [11] and in assay [12] was > 32 µM (inactive) throughout. The IC50 is > 32 µM (inactive) in assay [9], > 32 µM (inactive) in [10], 11.7 µM (inactive) in [13] and > 32 µM (inactive) in assay [14].
Take `Cc1cc(/C=C2\SC(=S)NC2=O)c(C)[nH]1`: the half-maximal effective concentration (EC50) in [15] is 58.1 µM (active); in assay [16] it was 56.6 µM (active); in assay [17], 68 µM (active); in assay [22], > 100 µM (active). The IC50 is 207 µM (active) in assay [18], 33 µM (active) in assay [19], 26.5 µM (active) in assay [20] and 20.4 µM (active) in assay [21].
